This note sets out measurements from patent US11358959B2, “Benzothiophene and benzothiazole compounds and methods of use thereof” (Araxes Pharma LLC, priority 2017, dated 2022).

T1 sequence (P01116 1-169 isoform P01116-2 G12C): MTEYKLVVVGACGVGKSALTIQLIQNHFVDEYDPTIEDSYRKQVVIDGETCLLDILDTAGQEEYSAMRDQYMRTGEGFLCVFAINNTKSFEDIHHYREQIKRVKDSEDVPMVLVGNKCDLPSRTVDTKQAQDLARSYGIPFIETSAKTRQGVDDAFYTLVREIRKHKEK

This assay has as its target T1, KRAS G12C 1-169, his-tagged protein, GDP-loaded (Homo sapiens, UniProt P01116, G12C).
T1 construct: KRAS G12C 1-169, his-tagged protein, GDP-loaded; His
The assay can be described thus: Biochemical assay: covalent binding to KRAS G12C by mass spectrometry. The conditions noted are these: covalently bind to KRAS G12C after a thirty minute incubation period. The procedure:
Test compounds were prepared as 10 mM stock solutions in DMSO (Fisher cat #BP-231-100). KRAS G12C 1-169, his-tagged protein, GDP-loaded was diluted to 2 μM or 0.5 μM in buffer (20 mM Hepes, 150 mM NaCl, 1 mM MgCl2). Compounds were tested for activity as follows:
Compounds were diluted to 50× final test concentration in DMSO in 96-well storage plates. Compound stock solutions were vortexed before use and observed carefully for any sign of precipitation. Dilutions were as follow: • For 100 μM final compound concentration, compounds were diluted to 5000 μM (5 μL 10 mM compound stock+5 μL DMSO and mixed well by pipetting. • For 30 […] final compound concentration, compounds were diluted to 1500 μM (3 μL 10 mM compound stock+17 μL DMSO) and mixed well by pipetting. • For 10 μM final compound concentration, compounds were diluted to 500 μM (2 μL 10 mM compound stock+38 μL DMSO) and mixed well by pipetting. 49 μL of the stock protein solution was added to each well of a 96-well PCR plate (Fisher cat #1423027). 1 μl of the diluted 50× compounds were added to appropriate wells in the PCR plate using 12-channel pipettor. Reactions were mixed carefully and thoroughly by pipetting up/down with a 200 μL multi-channel pipettor. The plate was sealed well with aluminum plate seal, and stored in drawer at room temperature for 10 minutes, 30 minutes, 2 hours or 24 hours. 5 μL of 2% formic acid (Fisher cat #A117) in de-ionized H2O was then added to each well followed by mixing with a pipette. The plate was then resealed with aluminum seal and stored on dry ice until analyzed as described below.
The above described assays were analyzed by mass spectrometry according to one of the following two procedures:
The MS instrument is set to positive polarity, 2 GHz resolution, and low mass (1700) mode and allowed to equilibrate for 30 minutes. The instrument is then calibrated, switched to acquisition mode and the appropriate method loaded.
After another 30 minute equilibration time, a blank batch (i.e., buffer) is run to ensure equipment is operating properly. The samples are thawed at 37° C. for 10 minutes, briefly centrifuged, and transfer to the bench top. Wells A1 and H12 are spiked with 1 μL 500 μM internal standard peptide, and the plates centrifuged at 2000×g for 5 minutes. The method is then run and masses of each individual well recorded.
The masses (for which integration data is desired) for each well are pasted into the platemap and exported from the analysis. Masses for the internal standards are exported as well. The data at 50 ppm is extracted for the +19 charge state, and identity of well A1 is assigned using the internal standard spike and integrated. Peak data is exported as a TOF list and the above steps are repeated individually, for the +20, 21, 22, 23, 24, and 25 charge states.
The masses and peak intensities of KRAS G12C protein species were measured using a Dionex RSLCnano system (Thermo Scientific) connected to a Q Exactive Plus mass spectrometer (Thermo Scientific).
[…] of sample was each loaded onto a Aeris™ 3.6 μm WIDEPORE C4 200 Å, LC Column 50×2.1 mm column maintained at 40° C. at a flow rate of 600 μL/min with 20% Solvent A (0.1% formic acid in H2O) and 80% Solvent B (0.1% formic acid in acetonitrile). The liquid chromatography conditions were 20% solvent B for 1 minute, 20% to 60% solvent B for 1.5 minutes, 60% to 90% solvent for 0.5 minute, 90% solvent B for 0.2 minute, 90% to 20% solvent B for 0.2 minute, and then equilibrated for 1.6 minute before the following sample injection. The flow rate was maintained at 600 μL/min throughout the sample analysis.
The mass spectrometer was operated in profile mode at a resolution of 17500, 5 microscans, using 50 msec max injection time and an AGC target of 1×10^6, and a full mass range from 800-1850 m/z was recorded. The HCD trapping gas was optimized for maximum sensitivity for intact proteins. […]
Turning to `C=CC(=O)N1CC(c2ccc3nc(-c4c(C)ccc5[nH]ncc45)oc3c2)C1` [Compound 6, 1-(3-(2-(5-methyl-1H-indazol-4-yl)benzo[d]oxazol-6-yl)azetidin-1-yl)prop-2-en-1-one], the Binding % result is “++ (++ indicates binding activity from 10 to 50%)”.
For `C=CC(=O)N1CC(c2ccc3nc(-c4cc(O)cc5ccccc45)sc3c2)C1` [Compound 4, 1-(3-(2-(3-hydroxynaphthalen-1-yl)benzo[d]thiazol-6-yl)azetidin-1-yl)prop-2-en-1-on] the value was “+++ (+++ indicates binding activity greater than 50%)”; for `C=CC(=O)N1CC(c2ccc3nc(-c4cc(O)cc5ccccc45)oc3c2)C1` [Compound 5, 1-(3-(2-(3-hydroxynaphthalen-1-yl)benzo[d]oxazol-6-yl)azetidin-1-yl)prop-2-en-1-one], “+++ (+++ indicates binding activity greater than 50%)”; for `C=CC(=O)N1CC(c2ccc3cc(-c4cc(O)cc5ccccc45)sc3c2)C1` [Compound 1, 1-(3-(2-(3-hydroxynaphthalen-1-yl)benzo[b]thiophen-6-yl)azetidin-1-yl)prop-2-en-1-one], “+++ (+++ indicates binding activity greater than 50%)”.
For `C=CC(=O)N1CC(c2ccc3cc(-c4c(C)ccc5[nH]ncc45)sc3c2)C1` [Compound 2, 1-(3-(2-(5-methyl-1H-indazol-4-yl)benzo[b]thiophen-6-yl)azetidin-1-yl)prop-2-en-1-one] the value was “++ (++ indicates binding activity from 10 to 50%)”; for `C=CC(=O)N1CC(c2ccc3nc(-c4c(C)ccc5[nH]ncc45)sc3c2)C1` [Compound 3, 1-(3-(2-(5-methyl-1H-indazol-4-yl)benzo[d]thiazol-6-yl)azetidin-1-yl)prop-2-en-1-one], “+ (+ indicates binding activity up to 10%)”.
